Consider two molecules from patent US11226337B2, “Chemoproteomic profiling of protein electrophilic and oxidative post-translational modifications” (Zenagem, LLC, priority 2017, dated 2022).

Assay [1] addresses T1, LGALS3BP Galectin3binding protein (Q08380) (Homo sapiens, UniProt Q08380).
T1 construct: In Situ Labelling of Cells with Hydrazine Probes for MS Experiments; endogenous in cells
T1 sequence (Q08380 19-585): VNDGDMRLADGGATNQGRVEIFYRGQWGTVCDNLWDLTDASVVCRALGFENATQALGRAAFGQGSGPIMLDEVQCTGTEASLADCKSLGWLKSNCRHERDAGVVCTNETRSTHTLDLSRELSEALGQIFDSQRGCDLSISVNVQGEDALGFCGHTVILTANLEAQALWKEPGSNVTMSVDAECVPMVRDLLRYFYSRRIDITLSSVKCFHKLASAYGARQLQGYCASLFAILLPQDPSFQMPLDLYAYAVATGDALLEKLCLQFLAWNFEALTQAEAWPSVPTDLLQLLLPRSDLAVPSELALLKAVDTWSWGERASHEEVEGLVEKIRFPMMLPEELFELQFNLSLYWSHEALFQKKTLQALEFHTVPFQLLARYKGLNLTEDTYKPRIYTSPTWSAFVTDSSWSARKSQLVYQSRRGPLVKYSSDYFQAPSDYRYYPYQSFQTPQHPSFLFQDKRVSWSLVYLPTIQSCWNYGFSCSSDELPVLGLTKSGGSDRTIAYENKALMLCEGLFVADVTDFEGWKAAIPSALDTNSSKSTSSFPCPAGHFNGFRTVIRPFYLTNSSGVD
The assay can be described thus: SILAC RP-ABPP. The note with it: SILAC H/L, MDA-MB-231. It is filed as cell-based.

The target of assay [2] is T2, GNS Nacetylglucosamine6sulfatase (P15586) (Homo sapiens, UniProt P15586).
T2 construct: In Situ Labelling of Cells with Hydrazine Probes for MS Experiments; endogenous in cells
T2 sequence (P15586 37-552): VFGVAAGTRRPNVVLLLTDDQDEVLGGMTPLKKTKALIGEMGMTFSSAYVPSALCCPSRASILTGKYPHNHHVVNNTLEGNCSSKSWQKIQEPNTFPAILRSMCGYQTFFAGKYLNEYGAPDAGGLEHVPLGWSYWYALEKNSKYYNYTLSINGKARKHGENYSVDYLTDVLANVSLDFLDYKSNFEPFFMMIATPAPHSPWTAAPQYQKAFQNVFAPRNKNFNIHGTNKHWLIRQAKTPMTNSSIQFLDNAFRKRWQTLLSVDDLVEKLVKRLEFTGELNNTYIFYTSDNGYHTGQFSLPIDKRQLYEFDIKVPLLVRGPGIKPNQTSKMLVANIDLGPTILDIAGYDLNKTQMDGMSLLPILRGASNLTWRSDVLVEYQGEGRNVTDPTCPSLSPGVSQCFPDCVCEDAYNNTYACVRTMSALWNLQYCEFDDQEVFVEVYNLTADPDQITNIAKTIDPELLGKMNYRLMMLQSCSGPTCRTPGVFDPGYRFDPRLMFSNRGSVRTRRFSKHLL
The assay can be described thus: SILAC RP-ABPP. The assay is classed as cell-based. The note with it: SILAC H/L, MDA-MB-231.

For `C#CCNN.Cl` [probe 1, prop-2-yn-1-ylhydrazine hydrochloride], the enrichment ratioavg in assay [1] (probe 1 3 mM 0.5 h vs probe 3) was 7; in assay [2] (probe 1 3 mM 0.5 h vs probe 3), 10. Further, the competition ratioavg in assay [1] (probe 1 vs probe 1+10x probe 3) and in assay [2] (probe 1 vs probe 1+10x probe 3) was 3 throughout.

For the molecule `C#CCCNC(=O)c1ccc(NN)cc1.Cl` [probe 2, N-(but-3-yn-1-yl)-4-hydrazinylbenzamide hydrochloride], the enrichment ratioavg in assay [1] (probe 2 1 mM 0.5 h vs probe 4) and in assay [2] (probe 2 1 mM 0.5 h vs probe 4) was 7 each time. For the same molecule, the competition ratioavg in assay [1] (probe 2 vs probe 2+10x probe 4) and in assay [2] (probe 2 vs probe 2+10x probe 4) was 3 throughout.
